Read-outs that look alike come from different tables or passages of the source.
Tests used:
CYP2B6 = molecular target: T1, CYP2B6 (Homo sapiens, UniProt P20813); type: in vitro ADME
T1 sequence (P20813 1-491): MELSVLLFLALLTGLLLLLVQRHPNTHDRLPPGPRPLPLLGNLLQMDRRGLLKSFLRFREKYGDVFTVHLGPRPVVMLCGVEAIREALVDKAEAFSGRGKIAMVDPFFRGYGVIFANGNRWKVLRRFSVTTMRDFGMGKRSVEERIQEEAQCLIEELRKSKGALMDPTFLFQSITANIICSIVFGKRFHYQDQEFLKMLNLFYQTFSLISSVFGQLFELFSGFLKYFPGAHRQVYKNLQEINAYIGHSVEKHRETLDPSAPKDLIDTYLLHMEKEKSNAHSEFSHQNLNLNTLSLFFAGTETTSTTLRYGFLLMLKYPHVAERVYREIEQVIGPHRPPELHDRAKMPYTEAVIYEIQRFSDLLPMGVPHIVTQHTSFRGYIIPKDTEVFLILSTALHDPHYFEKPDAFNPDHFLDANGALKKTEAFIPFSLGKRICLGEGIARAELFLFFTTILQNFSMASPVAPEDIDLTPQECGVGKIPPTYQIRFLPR

CYP2C9 = CYP2C9 (Homo sapiens, UniProt P11712); test: Oxidation of flavonoids by reconstituted recombinant P450, LC-MS/MS; type: in vitro ADME
CYP3A4 = CYP3A4 (Homo sapiens, UniProt P08684); test: as above; type: in vitro ADME
[1] = test system: liver microsomes of human sample HH2; test: Oxidation of flavonoids by human liver microsomes, sample HH2; type: in vitro ADME
[2] = guinea pigs, oral 30 mg of flavone, ref Das and Griffiths (1966), cited from earlier work
[3] = rats, oral or intraperitoneal administration; ref Das and Griffiths (1966); cited from earlier work
CYP2A6 [4] = molecular target: T2, CYP2A6 (Homo sapiens, UniProt P11509); test: Oxidation of flavonoids by reconstituted recombinant P450, LC-MS/MS
T2 sequence (P11509 1-494): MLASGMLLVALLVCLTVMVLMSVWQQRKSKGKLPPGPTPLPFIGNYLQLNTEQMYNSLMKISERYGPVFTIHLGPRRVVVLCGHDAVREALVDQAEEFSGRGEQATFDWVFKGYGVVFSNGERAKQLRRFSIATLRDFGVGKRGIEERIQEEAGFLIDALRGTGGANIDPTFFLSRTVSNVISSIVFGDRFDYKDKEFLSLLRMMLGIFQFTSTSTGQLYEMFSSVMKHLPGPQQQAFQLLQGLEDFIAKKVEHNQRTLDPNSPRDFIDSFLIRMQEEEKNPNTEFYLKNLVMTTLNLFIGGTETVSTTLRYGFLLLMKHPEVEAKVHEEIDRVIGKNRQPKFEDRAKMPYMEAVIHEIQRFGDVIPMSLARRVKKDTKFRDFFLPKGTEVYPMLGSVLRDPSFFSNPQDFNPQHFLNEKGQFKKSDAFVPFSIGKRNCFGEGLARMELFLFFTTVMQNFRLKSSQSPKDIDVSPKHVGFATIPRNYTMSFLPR

[5] = test system: sample HH47 liver microsomes; type: in vitro ADME, human; details: substrate flavone 60 μM, inhibitor 10 μM
[6] = type: in vitro ADME; details: human, human liver microsomes (sample HH54), probe flavone (60 µM), formation of diOHFM4 (3´4´diOHF)
CYP2A6 [7] = molecular target: T2, CYP2A6; details: 20 min, 60 μM

CYP3A4, sequence (P08684 whole entry): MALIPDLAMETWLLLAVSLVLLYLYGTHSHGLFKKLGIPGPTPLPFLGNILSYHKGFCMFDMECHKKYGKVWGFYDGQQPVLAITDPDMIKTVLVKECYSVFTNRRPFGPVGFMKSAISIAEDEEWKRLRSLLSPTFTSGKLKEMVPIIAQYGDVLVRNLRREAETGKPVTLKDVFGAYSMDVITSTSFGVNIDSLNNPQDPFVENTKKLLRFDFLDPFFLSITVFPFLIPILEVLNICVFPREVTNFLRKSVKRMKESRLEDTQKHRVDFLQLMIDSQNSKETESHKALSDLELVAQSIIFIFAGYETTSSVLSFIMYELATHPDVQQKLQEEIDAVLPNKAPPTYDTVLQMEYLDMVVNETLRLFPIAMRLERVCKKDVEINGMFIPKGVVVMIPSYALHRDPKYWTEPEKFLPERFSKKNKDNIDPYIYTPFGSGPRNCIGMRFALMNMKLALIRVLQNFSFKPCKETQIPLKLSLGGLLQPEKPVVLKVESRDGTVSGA
CYP2C9, sequence (P11712 whole entry): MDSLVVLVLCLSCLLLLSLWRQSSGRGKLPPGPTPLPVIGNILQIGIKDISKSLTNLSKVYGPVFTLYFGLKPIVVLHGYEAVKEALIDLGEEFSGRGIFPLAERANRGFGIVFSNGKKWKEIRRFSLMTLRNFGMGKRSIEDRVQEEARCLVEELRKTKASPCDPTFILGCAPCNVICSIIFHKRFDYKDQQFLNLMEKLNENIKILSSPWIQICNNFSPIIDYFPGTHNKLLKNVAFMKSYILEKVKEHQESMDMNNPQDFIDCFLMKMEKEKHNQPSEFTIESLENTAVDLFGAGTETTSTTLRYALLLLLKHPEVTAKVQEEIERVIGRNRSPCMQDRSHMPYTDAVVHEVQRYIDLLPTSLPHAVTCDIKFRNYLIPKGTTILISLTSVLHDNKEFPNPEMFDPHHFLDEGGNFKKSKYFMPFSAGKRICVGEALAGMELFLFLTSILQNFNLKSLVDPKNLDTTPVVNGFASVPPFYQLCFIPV

## O=c1cc(-c2ccccc2)oc2ccccc12 [flavone]
CYP2B6
  activity in oxidizing flavone: not very active
CYP2C9
  activity in oxidizing flavone: not very active
CYP3A4
  activity in oxidizing flavone: not very active
[1]
  production of OHFM6, OHFM9, and diOHFM4: very little
[2]; first day
  urinary excretion of 4´OHF: 622 µg
[2]; fourth day
  urinary excretion of 4´OHF: 0 µg
[2]; second day
  urinary excretion of 4´OHF: 309 µg
[2]; third day
  urinary excretion of 4´OHF: 15 µg
[3]
  3´4´diOHF found in urine: small amounts
CYP2A6 [4]
  activity in oxidizing to OHFM6 (4´OHF) and OHFM9 (3´OHF): highly active

## O=c1cc(-c2ccccc2)oc2c1ccc1ccccc12 [ANF, α-naphthoflavone]
[5]
  inhibition of formation of OHFM5, OHFM7, 6OHF, and OHFM12: inhibited
[6]
  inhibition at 20 min: 65%

## COc1ccc(-c2cc(=O)c3ccccc3o2)cc1 [4´MeF, 4´-methoxyflavone]
CYP2A6 [7]
  rate of O-demethylation to form M2 (4´OHF): 0.029 min⁻¹
  rate of formation of M1 (3´4´diOHF): 0.0004 min^1

## O=c1ccc2ccccc2o1 [coumarin]
[5]
  inhibition of formation of OHFM6 and OHFM9: strongly inhibited
[6]
  inhibition at 20 min: 75%

Reference: article PMC8719450 (Xenobiotica; the fate of foreign compounds in biological …, 2021)
